Source: US20080213390A1, “Deuterium Depleted Water (Ddw) Using As Adjuvant In Cancer Therapy For Cytostatics Toxicity Reducing” (priority 2005, published 2008)
Read-outs that look alike come from different tables or passages of the source.

Assays:
[1] = Description: 60 ppm concentration Deuterium Depleted Water was used for healthy adult outbred Wistar rats. Mono-chemotherapy was used to treat these animals using the following cytostatics: Vinblastine (VBL); Cyclophosphamide (CFS); 5-Fluorouracil (5-Fu); Farmarubicine (FARM). The administered doses were:
VBL—0.1 mg/kg body weight;
5-Fu—10 mg/kg body weight; and
FARM—1 mg/kg body weight.
The cytostatics were intra-peritoneally administered (i.p.) for 5 days consecutively.
The animals were distributed into two groups, as:
Animal sacrifice occurred over 5 and 10 days, respectively from the last cytostatic dose. After animal sacrifice, some tests were performed: bio-chemical, cyto-histological and morphological tests (on liver, spleen, kidneys), and tests for 3HTdR incorporation into lymphoid organs (bone marrow and lympho-nodules).
The protective effect of the 60 ppm Deuterium Depleted Water against the toxicity generated by cytostatics were studied using lots of 88 Wistar rats, each lot, males and females, with an average weight of 172 g. The animal lots were established as per GLP on pharmacological studies on laboratory-tested animals.

[2] = Measurement of protein, glycoprotein and serum protein glycolysis; format: in vivo, Wistar rats; conditions: for Amount of glycolysis with Deuterium Depleted Water: 60 ppm DDW daily diet; for Percentage of decrease of protein glycolysis in animals receiving DDW: DDW versus tap water; for Amount of Glycolysis with Tap Water: tap water daily diet
From the text: The methods used for these measurements are well known (measuring burette and the (glucidic) glucose compound dosing in the reaction with orto-toluidine).

[3] = serum, 8 rats per lot
[4] = TW-control group (150 ppm Deuterium tap water daily diet)
[5] = DDW group, cytostatic i.p. 5 days
[6] = TW-control group similarly treated, animals with obvious toxicity signs had to be sacrificed
[7] = DDW group (daily diet with Deuterium Depleted Water)

Method for P450 cyto-chromes: To study it, the cell organelles were separated by repeated centrifugation with a final separation of microsomes at 105,000 g via ultra-centrifugation. At the microsomes level, the P450 cyto-chromes (a member of the iso-enzymes family) activity and concentration are measured, which are the most important indications of enzyme activation (MFO).
The P450 concentration is spectrophotometrically determined after CO and Natriumdithionit reduction of microsomal P450 (Omura and Sato method). […] The enzymatic activity has been determined for a single substratum, namely for p-nitroanisol, which involves a de-metilation reaction.

Structure (SMILES) | spontaneous mortality [1, 5] | spontaneous mortality [1, 6] | signs of toxicity during the 5 days of therapy and post-therapy period ([1]; rat, in vivo, ip) | Amount of glycolysis with Deuterium Depleted Water [2] | Percentage of decrease of protein glycolysis in animals receiving DDW [2] | Amount of Glycolysis with Tap Water [2] | Sialic acid (average values) [3, 7] | Sialic acid (average values) ([3]; TW-control group) | P450 activity relative to the control group (P450 cyto-chromes; group of animals treated with Deuterium depleted Water) | signs of toxicity during the 5 days of therapy and post-therapy period [1, 5] | decrease of the phase I and II enzymes (P450 cyto-chromes; group TW-CFS) | findings in peripheral blood [4] | percentage of mortality ([1]; DDW group (60 ppm DDW daily diet), cytostatic i.p. 5 days) | percentage of mortality ([1]; TW-control group (tap water daily diet), cytostatic i.p. 5 days) | body weight increase ([1]; rat, in vivo)
O=c1[nH]cc(F)c(=O)[nH]1 [5-fluorouracil, 5-Fluorouracil] | no records of any spontaneous dead animals | spontaneous mortality occurred | no signs of toxicity | 4.2 mg glucides/g proteins | 39% | 6.89 mg glucides/g proteins | 2.43 mmol/L | 3.04 mmol/L | approximately 200% | – | – | – | – | – | –
O=P1(N(CCCl)CCCl)NCCCO1 (stereo not drawn) [Cyclophosphamide] | no records of any spontaneous dead animals | spontaneous mortality occurred | – | 5.47 mg glucides/g proteins | 17% | 6.59 mg glucides/g proteins | 2.68 mmol/L | 2.77 mmol/L | – | no signs of toxicity | approximately 100% | anemia and granulopenia | – | – | –
COc1cccc2c1C(=O)c1c(O)c3c(c(O)c1C2=O)C[C@@](O)(C(=O)CO)C[C@@H]3O[C@H]1C[C@H](N)[C@@H](O)[C@H](C)O1 [farmarubicine, Farmarubicine] | no records of any spontaneous dead animals | spontaneous mortality occurred | no signs of toxicity | 6.3 mg glucides/g proteins | 35% | 9.72 mg glucides/g proteins | 2.62 mmol/L | 2.88 mmol/L | – | – | – | – | – | – | –
CC[C@]1(O)C[C@@H]2CN(CCc3c([nH]c4ccccc34)[C@@](C(=O)OC)(c3cc4c(cc3OC)N(C)[C@H]3[C@@](O)(C(=O)OC)[C@H](OC(C)=O)[C@]5(CC)C=CCN6CC[C@]43[C@@H]65)C2)C1 [vinblastine, Vinblastine] | – | – | low intensity toxic effects | 7.5 mg glucides/g proteins | 7% | 8.06 mg glucides/g proteins | 2.82 mmol/L | 3.00 mmol/L | – | – | – | – | 25% | 66% | far more evident
